Reference: patent US10633348B2, “Methods to treat lymphoplasmacytic lymphoma” (Dana-Farber Cancer Institute, Inc., priority 2013, dated 2020)

Key:
Format in all cases: cell-based
JAK1 domain2 = tested on: JAK1 domain2
MAST1, MAST2 = assay: KiNativ kinase profiling in A375 cells; settings: Lys2, SEQ ID NO 96, 1.0 μM
ACK = tested on: ACK
YANK3 = tested on: YANK3
IKKb = tested on: IKKb
MAP3K2, MAP3K3 = assay: KiNativ kinase profiling in A375 cells; settings: Lys2, SEQ ID NO 87, 1.0 μM
PKR = tested on: PKR
MARK3, MARK4 = assay: KiNativ kinase profiling in A375 cells; settings: Lys1, SEQ ID NO 94, 1.0 μM
PIP4K2A = tested on: PIP4K2A
PIK3CD = tested on: PIK3CD
PKCa, PKCb = assay: KiNativ kinase profiling in A375 cells; settings: Lys2, SEQ ID NO 153, 1.0 μM
CK2a2 = tested on: CK2a2
TAK1 = tested on: TAK1
CSK = tested on: CSK
KSR1, KSR2 = assay: KiNativ kinase profiling in A375 cells; settings: Activation Loop, SEQ ID NO 70, 1.0 μM
CAMK2G = tested on: CAMK2G
p38b = tested on: p38b
JAK3 domain2 = tested on: JAK3 domain2
Mec1 = assay: CellTiter-Glo cell viability assay; settings: Homo sapiens, 72 hours
OCI-Ly3 = assay: CellTiter-Glo cell viability assay; settings: Homo sapiens, OCI-Ly3, 72 h
MST2 = tested on: MST2
MST1 = tested on: MST1
ARAF = tested on: ARAF
CDK4 = tested on: CDK4
CK1g2 = tested on: CK1g2
RSK2 domain1 = tested on: RSK2 domain1
AurB = tested on: AurB
SGK3 = tested on: SGK3
PIK3CG = tested on: PIK3CG
HPK1 = tested on: HPK1
AGK = tested on: AGK
PIK3CB = tested on: PIK3CB
ERK1 = tested on: ERK1
BTK = tested on: BTK
PFTAIRE1 = tested on: PFTAIRE1
RSK3 domain1 = tested on: RSK3 domain1
PYK2 = tested on: PYK2
NDR1 = tested on: NDR1
VRK2 = tested on: VRK2
NEK8 = tested on: NEK8
PHKG2 = tested on: PHKG2
MYO3A, MYO3B = assay: KiNativ kinase profiling in A375 cells; settings: Lys2, SEQ ID NO 115, 1.0 μM
DGKQ = tested on: DGKQ
PAN3 = tested on: PAN3
CDK5 = tested on: CDK5
TMD8 = assay: CellTiter-Glo cell viability assay; settings: Homo sapiens, 72 hours
OCI-Ly7 = assay: CellTiter-Glo cell viability assay; settings: Homo sapiens, 72 hours

Q: For `CCN1CCN(Cc2ccc(NC(=O)c3ccc(C)c(Oc4cc(N)ncn4)c3)cc2C(F)(F)F)CC1` [(A-4), 3-((6-aminopyrimidin-4-yl)oxy)-N-(4-((4-ethylpiperazin-1-yl)methyl)-3-(trifluoromethyl)phenyl)-4-methylbenzamide], which “inhibition of kinase labeling” value (JAK1 domain2) is on record?
A: −6.2%

Q: And the “inhibition of kinase labeling” value (MAST1, MAST2)?
A: 35.6%

Q: What about the “inhibition of kinase labeling” value (ACK) of the same compound?
A: 4.9%

Q: And the “inhibition of kinase labeling” value (YANK3)?
A: 27.7%

Q: What about the “inhibition of kinase labeling” value (IKKb) of the same compound?
A: −12.6%

Q: What about the “inhibition of kinase labeling” value (MAP3K2, MAP3K3) of the same compound?
A: 3.2%

Q: And the “inhibition of kinase labeling” value (PKR)?
A: −28.4%

Q: What about the “inhibition of kinase labeling” value (MARK3, MARK4) of the same compound?
A: −16.2%

Q: And the “inhibition of kinase labeling” value (PIP4K2A)?
A: −26.7%

Q: And the “inhibition of kinase labeling” value (PIK3CD)?
A: 2.2%

Q: And the “inhibition of kinase labeling” value (PKCa, PKCb)?
A: 2.3%

Q: What about the “inhibition of kinase labeling” value (CK2a2) of the same compound?
A: −18.2%

Q: And the “inhibition of kinase labeling” value (TAK1)?
A: 32.0%

Q: And the “inhibition of kinase labeling” value (CSK)?
A: 15.3%

Q: And the “inhibition of kinase labeling” value (KSR1, KSR2)?
A: −10.0%

Q: What about the “inhibition of kinase labeling” value (CAMK2G) of the same compound?
A: −23.1%

Q: What about the “inhibition of kinase labeling” value (p38b) of the same compound?
A: 51.4%

Q: And the “inhibition of kinase labeling” value (JAK3 domain2)?
A: 7.7%

Q: And the EC50 (Mec1)?
A: 14.3 µM

Q: And the EC50 (OCI-Ly3)?
A: 31.9 µM

Q: What about the “inhibition of kinase labeling” value (MST2) of the same compound?
A: −6.2%

Q: And the “inhibition of kinase labeling” value (MST1)?
A: −4.7%

Q: And the “inhibition of kinase labeling” value (ARAF)?
A: 12.2%

Q: What about the “inhibition of kinase labeling” value (CDK4) of the same compound?
A: 17.4%

Q: What about the “inhibition of kinase labeling” value (CK1g2) of the same compound?
A: −9.1%

Q: What about the “inhibition of kinase labeling” value (RSK2 domain1) of the same compound?
A: −3.3%

Q: What about the “inhibition of kinase labeling” value (AurB) of the same compound?
A: −51.1%

Q: And the “inhibition of kinase labeling” value (SGK3)?
A: −10.2%

Q: What about the “inhibition of kinase labeling” value (PIK3CG) of the same compound?
A: −21.1%

Q: What about the “inhibition of kinase labeling” value (HPK1) of the same compound?
A: 68.1%

Q: What about the “inhibition of kinase labeling” value (AGK) of the same compound?
A: −31.4%

Q: What about the “inhibition of kinase labeling” value (PIK3CB) of the same compound?
A: 27.8%

Q: What about the “inhibition of kinase labeling” value (ERK1) of the same compound?
A: −9.0%

Q: What about the “inhibition of kinase labeling” value (BTK) of the same compound?
A: −18.8%

Q: And the “inhibition of kinase labeling” value (PFTAIRE1)?
A: 4.3%

Q: And the “inhibition of kinase labeling” value (RSK3 domain1)?
A: −32.6%

Q: And the “inhibition of kinase labeling” value (PYK2)?
A: 10.9%

Q: And the “inhibition of kinase labeling” value (NDR1)?
A: 9.3%

Q: And the “inhibition of kinase labeling” value (VRK2)?
A: 27.9%

Q: What about the “inhibition of kinase labeling” value (NEK8) of the same compound?
A: −11.4%

Q: And the “inhibition of kinase labeling” value (PHKG2)?
A: 15.2%

Q: What about the “inhibition of kinase labeling” value (MYO3A, MYO3B) of the same compound?
A: −15.3%

Q: And the “inhibition of kinase labeling” value (DGKQ)?
A: 11.0%

Q: What about the “inhibition of kinase labeling” value (PAN3) of the same compound?
A: 12.1%

Q: What about the “inhibition of kinase labeling” value (CDK5) of the same compound?
A: −27.3%

Q: For `CCN1CCN(Cc2ccc(NC(=O)c3ccc(C)c(Oc4ccnc(Nc5cnn(C)c5)n4)c3)cc2C(F)(F)F)CC1` [(A-14), N-(4-((4-ethylpiperazin-1-yl)methyl)-3-(trifluoromethyl)phenyl)-4-methyl-3-((2-((1-methyl-1H-pyrazol-4-yl)amino)pyrimidin-4-yl)oxy)benzamide], which EC50 (TMD8) is on record?
A: 0.045 µM

Q: What about the EC50 (OCI-Ly7) of the same compound?
A: 0.173 µM
